Assay results: ChEMBL document CHEMBL3507680, “University of Dundee, Gates Library screen for HepG2 cell viability”

Experiment: Human HepG2 cell viability assay in 384 well format
Assay type: toxicity, cell-based
Set-up: dose 125 nL, time 70.5 hour; concentration not given beside the values
Conditions: HepG2 cells, read-out: Inhibition

| Compound | cytotoxicity at 70.5 h [%] |
| --- | --- |
| CC(=O)N1CCCC(Cc2nccn2C)C1 (configuration not stated) | -5.45 |
| O=C(COc1cccc(F)c1)N1C[C@@H](O)[C@H](N2CCOCC2)C1 | -5.2 |
| Cc1cccc(C2CCCN2S(=O)(=O)N(C)C)n1 (configuration not stated) | -2.59 |
| Cc1c[nH]nc1C1CCCCN1C(=O)CCn1nccc1C (configuration not stated) | 11.5 |
| CO[C@H]1CN(Cc2ccccc2F)C[C@@]12CCCO2 | -5.8 |
| CN1CCC(c2cc(C(F)(F)F)n3ccnc3n2)CC1 | 24.8 |
| Cc1nccn1-c1cncc(C2CCCN2Cc2cccnc2)n1 (configuration not stated) | 19.3 |
| c1cnc(N2CCCC(c3cncc(-n4ccnc4)n3)C2)nc1 (configuration not stated) | 13.4 |
| COCc1cc(O)nc(C2CCCN(Cc3cccc(Cl)c3Cl)C2)n1 (configuration not stated) | -4.6 |
| COc1cc2nc3n(c(=O)c2cc1OC)CCN(C(=O)C(C)(C)C)CC3 | -1.33 |
| OC1CCN(Cc2c(-c3ccco3)[nH]c3ncccc23)CC1 | -5.94 |
| COc1ccc(CN2CCC(c3cc(O)nc(C)n3)C2)c(F)c1 (configuration not stated) | -1.14 |
| CCc1cc(C(=O)N2CCc3nc4c(C)csc4c(=O)n3CC2)on1 | 20.2 |
| O=C(C1CCCC1)N1CCC(c2n[nH]c3nccnc23)CC1 | -1.92 |
| COc1ccc(OC)c(CN2CCC(c3cc(O)nc(C)n3)C2)c1 (configuration not stated) | 22.5 |
| COCc1cc(O)nc(C2CCCN(Cc3ccc(OC)cc3)C2)n1 (configuration not stated) | -2.96 |
| COc1ncc(C2(O)CCN(Cc3cc(F)cc(F)c3)CC2)c(OC)n1 | -2.18 |
| CC(=O)NC[C@]1(O)CCN(C(=O)c2ccc(C)c(F)c2)C[C@H]1O | -2.74 |
| O=C(N[C@@H]1CN(Cc2ccc3cc[nH]c3c2)C[C@H]1O)c1cnccn1 | -5.2 |
| O=C(N[C@@H]1CN(Cc2cccc(F)c2)C[C@H]1O)c1cscn1 | -4.57 |
| CN(c1ccncn1)C1CC2(CCN(C(=O)c3cncs3)C2)C1 (configuration not stated) | -2.06 |
| CN(C(=O)C1CCOCC1)[C@@H]1CCC[C@@H](N2CCCC2)[C@@H]1O | -3.82 |
| Cc1cnc(C2CCCN(C(=O)c3c[nH]c(=O)[nH]c3=O)C2)s1 (configuration not stated) | -8.7 |
| Cc1cccc(CN2CCC(c3nnc(-c4scnc4C)o3)CC2)c1 | 0.33 |

| Compound | cytotoxicity at 70.5 h [%] |
| --- | --- |
| Cc1ncsc1-c1nnc(C2CCN(Cc3ccc(Cl)cc3)CC2)o1 | 32.1 |
| CC(=O)N1CCCC1c1cc(N2CCN(CC(C)(C)C)CC2)cc(C)n1 (configuration not stated) | -7.87 |
| CNc1cncc(C2CCCN2C(=O)c2ccc3c(c2)CCC3)n1 (configuration not stated) | 9.47 |
| CCC(=O)N1CCCC1c1csc(Nc2cnccn2)n1 (configuration not stated) | -9.64 |
| CC(=O)N1CCCC(c2cccc(-n3ccnc3)n2)C1 (configuration not stated) | -7.9 |
| c1cnc(N2CCC(c3n[nH]c4ncccc34)C2)nc1 (configuration not stated) | -7.93 |
| Cc1ncccc1Oc1nccnc1C1CCCN(C(C)C)C1 (configuration not stated) | -6.39 |
| Cc1ccc(Oc2nccnc2C2CCN(C(=O)C(C)(C)N)CC2)cc1 | -6.45 |
| CCc1cc(=O)[nH]c(-c2ccc(NC(CO)CC(C)C)nc2)n1 (configuration not stated) | -2.63 |
| CC(CNC(=O)CCCn1cncn1)N1CCc2ccccc2C1 (configuration not stated) | 11.6 |
| CC(C)C(CNC(=O)CCn1cncn1)N1CCc2ccccc2C1 (configuration not stated) | -6.95 |
| Cc1cccc(N2CCN(C(=O)CNCCn3cccn3)CC2)c1 | 9.75 |
| Cc1ccc(S(C)(=O)=O)cc1NCC(=O)NCCC1=CCCCC1 | -9.03 |
| COC(=O)c1cccc(S(=O)(=O)NCC(c2ccco2)N2CCCC2)c1 (configuration not stated) | -14.2 |
| COCCNC(=O)NCc1ccc(-n2ccc(C(F)(F)F)n2)cc1 | -7.44 |
| COC(=O)c1ccc2c(c1)CCCN2S(=O)(=O)c1cn(C)c(C)n1 | 1.33 |
| COC(=O)C1CCN(C(=O)Cn2ccc(-c3ccccc3)n2)CC1 | -10.6 |
| Cc1cccc(N2CCN(C(=O)CNCCn3cc(C)cn3)CC2)c1 | 45 |
| CC(C)c1noc(OCC(=O)N2CCCCC2C)n1 (configuration not stated) | -2.39 |
| CC1CCCCN1C(=O)COc1nc(C(C)(C)C)no1 (configuration not stated) | -2.52 |
| CCOC(=O)C1(NC(=O)CCNc2cc(C)ccc2OC)CCCCC1 | -4.71 |
| O=C(c1ccc2[nH]cnc2c1)N1CCC(COc2ccccn2)CC1 | -5.85 |
| c1cc(N2CCC(CN3CCOCC3)CC2)c2sccc2n1 | 0.228 |
| CNS(=O)(=O)c1c(C)sc2ccccc12 | -0.847 |

| Compound | cytotoxicity at 70.5 h [%] |
| --- | --- |
| NC(=O)C1CCN(C(=O)NC(Cc2ccccc2)C(F)(F)F)CC1 (configuration not stated) | 3.75 |
| CC(C)(C)CC(NC(=O)N1CCS(=O)(=O)CC1)C(F)(F)F (configuration not stated) | -4.28 |
| CC(C)(C)CC(NC(=O)N1CCC(C(N)=O)CC1)C(F)(F)F (configuration not stated) | 5.66 |
| CC(C)(NCCOc1ccc(CC#N)cc1)c1nccs1 | -2.87 |
| CCC(CNC(=O)c1cccc(S(=O)(=O)NC)c1)N1CCCC1 (configuration not stated) | -2.78 |
| CC1CCCCN1C(=O)COc1nc(Cc2ccc(F)cc2)no1 (configuration not stated) | -6.78 |
| Cc1cc(C)cc(NCCC(=O)NCc2cccnc2N(C)C)c1 | -5.81 |
| CN(CCc1ccncc1)CCc1nccs1 | -12.8 |
| COCC1CCN(c2ccnc3ccsc23)C1 (configuration not stated) | -5.48 |
| CN(CCc1cccs1)CCc1nccs1 | 0.685 |
| CC(CNC(=O)N(C)Cc1ccco1)N1CCc2sccc2C1 (configuration not stated) | 4.72 |
| CC(CNC(=O)NCc1ccco1)N1CCc2sccc2C1 (configuration not stated) | 36.1 |
| CCn1c(=O)n(CCC(=O)N(C)Cc2ccc(C)o2)c2ccccc21 | -4.18 |
| Cn1c(CN2CCC(N3CCNC3=O)CC2)cc(=O)n(C)c1=O | -7.49 |
| CC(=O)N1CCC(NC(=O)Cc2nc3nc(C)cc(C)n3n2)CC1 | -3.83 |
| CC(Cn1cccn1)Nc1cnc2ccccc2n1 (configuration not stated) | -0.212 |
| Cc1cnn(CC(C)Nc2nc3ccccc3o2)c1 (configuration not stated) | 24.3 |
| Cc1cnn(CCNc2cnc3ccccc3n2)c1 | -1.2 |
| Cc1ccc(C(C)NC(=O)CSCC(N)=O)cc1 (configuration not stated) | -0.981 |
| O=C(CCc1ccccc1)NCC(O)c1c(F)cccc1F (configuration not stated) | -3.12 |
| CS(=O)(=O)CCNC(=O)Nc1ccc(Cl)cc1-n1cccc1 | 23.7 |
| O=C(Nc1cnn(-c2ccccc2Cl)c1)NC1CCC(O)CC1 (configuration not stated) | 23.9 |
| COCCC(=O)NCC(O)c1c(F)cccc1F (configuration not stated) | -7.9 |
| CCOCCS(=O)(=O)c1nnc(NCCOC)s1 | 23.1 |

| Compound | cytotoxicity at 70.5 h [%] |
| --- | --- |
| COc1ccc(C2CCN(Cc3cscn3)CC2)cc1 | 0.308 |
| Cc1ccc(C(C)NC(=O)CCc2cnn(C)c2)cc1F (configuration not stated) | -8.21 |
| CNC(=O)N(C)CC1(c2ccc(Br)cc2)CC1 | -3.73 |
| CN(Cc1ccco1)C(=O)C1CCCc2ccccc21 (configuration not stated) | -3.68 |
| CCC(c1ccc(F)cc1F)N1CCN(CCO)CC1 (configuration not stated) | -6.18 |
| CC(CNC(=O)CCc1ccco1)N1CCc2sccc2C1 (configuration not stated) | 3.4 |
| N#CCCN(Cc1ccco1)C(=O)C1CCCc2ccccc21 (configuration not stated) | -6.61 |
| CCSCc1ccc(C(=O)N2CCCN(CC(N)=O)CC2)cc1 | -5.22 |
| Cn1cccc1C(=O)COc1ccc(S(N)(=O)=O)cc1 | 0.32 |
| Cc1ccc(NC(=O)NCC2CCS(=O)(=O)C2)cc1Cl (configuration not stated) | 0.575 |
| COc1cc(C(C)=O)ccc1OCC(=O)c1cccn1C | 32.2 |
| N#CCSCC(=O)NCC1CCCCC1 | -7.13 |
| O=C(NCC1CCS(=O)(=O)C1)c1ccco1 (configuration not stated) | -8.58 |
| NC(=O)CN1CCCN(C(=O)c2ccc(SC(F)F)cc2)CC1 | -6.46 |
| NC(=O)CSCC(=O)NCC1CCCC1 | -10.8 |
| CC(C)(C)n1ncc(NCC(O)c2ccccc2)c(Cl)c1=O (configuration not stated) | 25.2 |
| CC1CN(C(=O)Nc2cc(C(F)(F)F)c[nH]c2=O)CCO1 (configuration not stated) | -8.88 |
| CC1(C)CN(C(=O)Nc2cc(C(F)(F)F)c[nH]c2=O)CCO1 | -6.62 |
| O=C(NCC1CCS(=O)(=O)C1)c1ccc(NC(=O)c2ccco2)cc1 (configuration not stated) | 26.8 |
| O=c1n(CCNCc2cccc3ccccc23)nc2ccccn12 | -12.6 |
| CC(C)(C)n1ncc(NCC(O)c2ccccc2C(F)(F)F)c(Cl)c1=O (configuration not stated) | 23.5 |
| O=c1n(CCNCc2ccc3ccccc3c2)nc2ccccn12 | -0.105 |
| CC(C)c1noc(CCNC(=O)NCC2COc3ccccc3O2)n1 (configuration not stated) | -11.6 |
| CCC(C)(C)N(C)CCOc1cccc(S(C)(=O)=O)c1 | -3.09 |

| Compound | cytotoxicity at 70.5 h [%] |
| --- | --- |
| CN(C)C(=O)c1cccc(CCNS(C)(=O)=O)c1 | -2.26 |
| O=C(NCc1ccccc1OCCO)Nc1ccc2c(c1)CCC2 | 0.688 |
| CCn1nc(C)cc1C(=O)OCCNc1ncnc2ccccc12 | 27.6 |
| CNC(=O)C1CCCCN1C(=O)c1cn(CCOC)c2ccccc12 (configuration not stated) | 0.571 |
| CC(C)N(C)S(=O)(=O)N(C)Cc1cnn(Cc2ccccc2)c1 | 3.45 |
| COCCn1cc(C(=O)N2CCCC2c2ccncc2)c2ccccc21 (configuration not stated) | -4.2 |
| CN(C)C(=O)c1cccc(CCNc2ccccc2S(C)(=O)=O)c1 | -0.957 |
| COc1c(CNCc2ccccc2Cn2cncn2)c(C)nn1C | -1.28 |
| Cc1ccc(NC2CCN(C(=O)CCCc3ccccn3)CC2)nn1 | 9.21 |
| CCc1nccn1C1CCCN(C(=O)CCc2nc(C(C)C)no2)C1 (configuration not stated) | -1.73 |
| Cc1nn(C)c(Cl)c1C1CCCN1C(=O)c1ccc(N(C)C)nn1 (configuration not stated) | -12.9 |
| N#Cc1ccc(N2CCCN(CCCn3cncn3)CC2)cc1 | -0.762 |
| CC(C)(CNC(=O)Nc1nccs1)N1CCOCC1 | -6.21 |
| O=C(c1c[nH]c(=O)c(Cl)c1)N1CCc2ccccc2C1 | 1.04 |
| O=C(c1cccc(F)c1)N1CCCC1c1ncc2c(n1)CCNC2 (configuration not stated) | -4.38 |
| COc1ncc(C2(O)CCN(Cc3cc(F)ccc3F)CC2)c(OC)n1 | -5.13 |
| CC(C)(N)CNS(=O)(=O)Cc1cccc2cccnc12 | 1.51 |
| Cc1cc(C[C@@H]2CCC[C@H]2NCc2c[nH]nc2-c2ccccc2)on1 | 20.7 |
| CC1(C)CC(N(Cc2ccncc2)Cc2cccnc2)CC(C)(C)N1 | 27.1 |
| Cc1ccsc1CN(Cc1cccnc1)C1CC(C)(C)NC(C)(C)C1 | 5.95 |
| Cc1cc(C[C@@H]2CCC[C@H]2NCc2cccc(F)c2F)on1 | -2.88 |
